Data published in patent US11345666B2, “Phenyl and pyridinyl substituted imidazoles as modulators of RORγT” (Janssen Pharmaceutica NV, priority 2018, dated 2022).
Like-named read-outs stand apart in the source and are kept apart here. Marks after values point to notes of the source that are not given here.

Legend:
[1] = test system: IL-17 production by CD4 T cells; assay: Human Th17 assay; type: cell-based; conditions: 72 h, IL-17 in supernatant after 3 days
Source text: The human Th17 assay tests the effect of RORγt modulatory compounds on IL-17 production by CD4 T cells under conditions which favor Th17 differentiation. Total CD4^+ T cells were isolated from the peripheral blood mononuclear cells (PBMC) of healthy donors using a CD4^+ T cell isolation kit II, following the manufacturer's instructions (Miltenyi Biotec). Cells were resuspended in a medium of RPMI-1640 supplemented with 10% fetal bovine serum, penicillin, streptomycin, glutamate, and β-mercaptoethanol and were added to 96-well plates at 1.5×10^5 per 100 μL per well. 50 μL of compound at titrated concentrations in DMSO were added into each well at final DMSO concentration at 0.2%. Cells were incubated for 1 hour, then 50 μL of Th17 cell differentiation medium was added to each well. The final concentrations of antibodies and cytokines (R&D Systems) in differentiation medium were: 3×10^6/mL anti-CD3/CD28 beads (prepared using human T cell activation/expansion kit, Miltenyi Biotec), 10 μg/mL anti-IL4, 10 μg/mL anti-IFNγ, 10 ng/mL IL1β, 10 ng/mL IL23, 50 ng/mL IL6, 3 ng/mL TGFβ and 20 U/mL IL2. Cells were cultured at 37° C. and 5% CO2 for 3 days. Supernatants were collected and the accumulated IL-17 in culture was measured by using MULTI-SPOT® Cytokine Plate following manufacture's instruction (Meso Scale Discovery). The plate was read using Sector Imager 6000, and IL-17 concentration was extrapolated from the standard curve. The IC50s were determined by GraphPad.

[2] = target: full-length human RORγt (Homo sapiens (Human), UniProt P51449); assay: RORγt (full-length human) reporter assay, conditions A or B; type: cell-based; conditions: for IC50: HEK293T cells, read-out: RORγt (FL) Reporter Assay A or B, IC50; for inhibition at 2 µM: 2 μM compound concentration (**); for inhibition at 6 µM: read-out: RORγt (FL) Reporter Assay A or B, % inhibition @ 6 μM, 6 μM compound concentration
Outline: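 HEK293T cells transiently co-transfected (PEI) with GAL4-DBD–RORγt, GAL4-firefly luciferase and CMV-Renilla reporters; condition A 35,000 cells/well, 170.5 ng DNA/well; condition B 8750 cells/well, 42.6 ng DNA/well.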

[3] = read-out: RORγt (FL) Reporter Assay A or B, % inhibition
[4] = 0.22 μM compound concentration (******), read-out: RORγt (FL) Reporter Assay A or B, % inhibition
[5] = 0.67 μM compound concentration (****), read-out: RORγt (FL) Reporter Assay A or B, % inhibition

Sequence of full-length human RORγt (P51449 other isoform, or with tags, fused parts or gaps): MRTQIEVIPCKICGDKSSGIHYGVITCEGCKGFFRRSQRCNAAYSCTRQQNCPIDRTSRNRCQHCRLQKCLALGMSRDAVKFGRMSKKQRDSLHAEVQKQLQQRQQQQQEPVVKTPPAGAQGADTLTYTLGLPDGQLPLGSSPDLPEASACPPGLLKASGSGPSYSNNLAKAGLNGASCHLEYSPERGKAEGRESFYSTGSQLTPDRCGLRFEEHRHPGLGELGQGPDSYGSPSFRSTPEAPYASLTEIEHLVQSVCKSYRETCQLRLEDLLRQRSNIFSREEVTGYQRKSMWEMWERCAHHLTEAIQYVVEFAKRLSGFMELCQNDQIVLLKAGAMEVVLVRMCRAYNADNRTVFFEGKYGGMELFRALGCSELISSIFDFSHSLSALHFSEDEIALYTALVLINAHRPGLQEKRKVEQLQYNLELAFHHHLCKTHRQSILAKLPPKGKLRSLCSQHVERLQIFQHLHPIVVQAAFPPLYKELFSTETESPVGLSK

## CCc1nc(C(=O)NC[C@H]2CC[C@H](S(C)(=O)=O)CC2)c(Cl)n1-c1ccc(CC(C)C(F)(F)F)cc1OC (single isomer, unassigned) [Example 6, 5-Chloro-2-ethyl-1-((1S*)-2-methoxy-4-(3,3,3-trifluoro-2-methylpropyl)phenyl)-N-(((1r,4S)-4-(methylsulfonyl)cyclohexyl)methyl)-1H-imidazole-4-carboxamide]
[1]
  IC50: 2 nM
[2]; 0.67 μM compound concentration (****)
  RORγt (FL) Reporter Assay A or B, % inhibition: 99**** %
[2]
  IC50: 6 nM

## CCc1nc(C(=O)NC[C@H]2CC[C@H](S(C)(=O)=O)CC2)c(C)n1-c1ccc(CC(C)C(F)(F)F)cc1OC (single isomer, unassigned) [Example 7]
[1]
  IC50: 7 nM
[2]
  IC50: 12 nM
[2]; read-out: RORγt (FL) Reporter Assay A or B, % inhibition, 0.22 μM compound concentration (******)
  inhibition at 0.22 µM: 91%

## CCc1nc(C(=O)NC[C@H]2CC[C@H](S(C)(=O)=O)CC2)c(Cl)n1-c1ncc(CC(C)(C)C(F)(F)F)cc1OC(F)F [Example 2, 5-Chloro-1-(3-(difluoromethoxy)-5-(3,3,3-trifluoro-2,2-dimethylpropyl)pyridin-2-yl)-2-ethyl-N-((4-(methylsulfonyl)cyclohexyl)methyl)-1H-imidazole-4-carboxamide]
[1]
  IC50: 85 nM
[2]; 1 μM compound concentration (***), read-out: RORγt (FL) Reporter Assay A or B, % inhibition
  inhibition at 1 µM: 84%
[2]
  IC50: 12 nM

## CCc1nc(C(=O)NC[C@H]2CC[C@H](S(C)(=O)=O)CC2)c(Cl)n1-c1ccc(N[C@H](C)C(F)(F)F)cc1OC [Example 3, 5-Chloro-2-ethyl-1-(2-methoxy-4-(((R)-1,1,1-trifluoropropan-2-yl)amino)phenyl)-N-(((1r,4R)-4-(methylsulfonyl)cyclohexyl)methyl)-1H-imidazole-4-carboxamide]
[1]
  IC50: 31 nM
[2]; [3]
  inhibition at 2 µM: 101%
[2]
  IC50: 36 nM

## CCc1nc(C(=O)NC[C@H]2CC[C@H](S(C)(=O)=O)CC2)c(F)n1-c1ccc(N[C@H](C)C(F)(F)F)cc1OC [Example 12, 2-Ethyl-5-fluoro-1-(2-methoxy-4-(((R)-1,1,1-trifluoropropan-2-yl)amino)phenyl)-N-(((1r,4R)-4-(methylsulfonyl)cyclohexyl)methyl)-1H-imidazole-4-carboxamide]
[1]
  IC50: 220 nM
[2]
  IC50: 160 nM
  inhibition at 6 µM: 109%

## CCc1nc(C(=O)NC[C@H]2CC[C@H](S(C)(=O)=O)CC2)c(Cl)n1-c1ccc(CCC(F)(F)F)cc1F [Example 22, 5-Chloro-2-ethyl-1-(2-fluoro-4-(3,3,3-trifluoropropyl)phenyl)-N-(((1r,4r)-4-(methylsulfonyl)cyclohexyl)methyl)-1H-imidazole-4-carboxamide]
[1]
  IC50: 42 nM
[2]; [4]
  inhibition at 0.22 µM: 38%
[2]
  IC50: 15 nM

## [2H]C([2H])([2H])Oc1cc(CC(C)(C)C(F)(F)F)ccc1-n1c(CC)nc(C(=O)NC[C@H]2CC[C@H](S(C)(=O)=O)CC2)c1C#N [Example 27, 5-Cyano-2-ethyl-1-(2-(methoxy-d3)-4-(3,3,3-trifluoro-2,2-dimethylpropyl)phenyl)-N-(((1r,4r)-4-(methylsulfonyl)cyclohexyl)methyl)-1H-imidazole-4-carboxamide]
[1]
  IC50: 13 nM
[2]; [5]
  inhibition at 0.67 µM: 97%
[2]
  IC50: 18 nM

## CCc1nc(C(=O)NC[C@H]2CC[C@H](S(C)(=O)=O)CC2)c(C#N)n1-c1ccc(CC(C)(C)C(F)(F)F)cc1OC(F)F [Example 36, 5-Cyano-1-(2-(difluoromethoxy)-4-(3,3,3-trifluoro-2,2-dimethylpropyl)phenyl)-2-ethyl-N-(((1r,4r)-4-(methylsulfonyl)cyclohexyl)methyl)-1H-imidazole-4-carboxamide]
[1]
  IC50: 8 nM
[2]; [3]
  inhibition at 2 µM: 101%
[2]
  IC50: 13 nM

## CCc1nc(C(=O)NC[C@]2(O)CC[C@@H](S(C)(=O)=O)CC2)c(Cl)n1-c1c(F)cc(CC(C)C)cc1F [Example 83, 5-Chloro-1-(2,6-difluoro-4-isobutylphenyl)-2-ethyl-N-(((1s,4s)-1-hydroxy-4-(methylsulfonyl)cyclohexyl)methyl)-1H-imidazole-4-carboxamide]
[1]
  IC50: > 6000 nM
[2]; [3]
  inhibition at 2 µM: 23%
[2]
  IC50: 120 nM

## CCc1nc(C(=O)NC[C@]2(O)CC[C@@H](S(C)(=O)=O)CC2)c(Cl)n1-c1ccc(CC(C(F)(F)F)C(F)(F)F)cc1F [Example 100, 5-Chloro-2-ethyl-1-(2-fluoro-4-(3,3,3-trifluoro-2-(trifluoromethyl)propyl)phenyl)-N-(((1s,4s)-1-hydroxy-4-(methylsulfonyl)cyclohexyl)methyl)-1H-imidazole-4-carboxamide]
[1]
  IC50: 58 nM
[2]; [4]
  inhibition at 0.22 µM: 100%
[2]
  IC50: 6.7 nM

## CCc1nc(C(=O)NC[C@]2(O)CC[C@@H](S(C)(=O)=O)CC2)c(C)n1-c1ccc(CC(C(F)(F)F)C(F)(F)F)cc1F [Example 109, 2-Ethyl-1-(2-fluoro-4-(3,3,3-trifluoro-2-(trifluoromethyl)propyl)phenyl)-N-(((1s,4s)-1-hydroxy-4-(methylsulfonyl)cyclohexyl)methyl)-5-methyl-1H-imidazole-4-carboxamide]
[1]
  IC50: 79 nM
[2]; [5]
  inhibition at 0.67 µM: 97%
[2]
  IC50: 22 nM

## CCc1nc(C(=O)NC[C@]2(O)CC[C@@H](S(C)(=O)=O)CC2)c(C#N)n1-c1ccc(CC(C)(C)C(F)(F)F)cc1OC(F)(F)F [Example 111, 5-Cyano-2-ethyl-N-(((1s,4s)-1-hydroxy-4-(methylsulfonyl)cyclohexyl)methyl)-1-(4-(3,3,3-trifluoro-2,2-dimethylpropyl)-2-(trifluoromethoxy)phenyl)-1H-imidazole-4-carboxamide]
[1]
  IC50: 69 nM
[2]
  IC50: 86 nM
  inhibition at 6 µM: 99%
